Measured values from patent publication US5631394A, “Pharmaceutically active ceramide-related compounds” (The Liposome Company, Inc., priority 1995, dated 1997).
Counter-ions that a name gives are not always drawn. Like-named read-outs stand apart in the source and are kept apart here.

Tests used:
A549 cells = assay: sulforhodamine B cytotoxicity assay, 72 hour drug exposure, A549; assay type: cell-based
RPMI 7666 cells = assay: sulforhodamine B cytotoxicity assay, 72 hour drug exposure, RPMI 7666; assay type: cell-based
Description: (§1) These studies were performed using a sulforrhodamine B assay (see Monks et al., J. Natl. Cancer Inst. (U.S.) 83:757 ([…])). Compounds were dissolved in ethanol. Results from these studies, presented in the following tables, are expressed as Gl50 values, that is, concentration of a drug (micromolar) required to inhibit growth of fifty percent of the cells.

U937 cells = assay: sulforhodamine B cytotoxicity assay, 72 hour drug exposure, U937; assay type: cell-based; details: Homo sapiens, U-937
Description: as §1

LEWIS LUNG cells = assay: sulforhodamine B cytotoxicity assay, 72 hour drug exposure, Lewis lung; assay type: cell-based
C3H10T1/2 cells = assay: sulforhodamine B cytotoxicity assay, 72 hour drug exposure, C3H10T1/2; assay type: cell-based; details: Mus musculus, C3H 10T1/2
Description: as §1

MCF7 cells = assay: sulforhodamine B cytotoxicity assay, 72 hour drug exposure, MCF7; assay type: cell-based
MCF7/ADR cells = assay: sulforhodamine B cytotoxicity assay, 72 hour drug exposure, MCF7/ADR; assay type: cell-based
OVCAR 3 cells = assay: sulforhodamine B cytotoxicity assay, 72 hour drug exposure, OVCAR 3; assay type: cell-based
HT 29 cells = assay: sulforhodamine B cytotoxicity assay, 72 hour drug exposure, HT 29; assay type: cell-based
RPMI-7666 cells [1] = assay: % survival, trypan blue exclusion assay, without serum, RPMI-7666; assay type: cell-based; details: bioactive lipid dose = 20 uM, 2880 min
U-937 cells [2] = assay: % survival, trypan blue exclusion assay, without serum, U-937; assay type: cell-based; details: bioactive lipid dose = 20 uM, 2880 min
P-388 cells [3] = assay: % survival, trypan blue exclusion assay, without serum, P-388; assay type: cell-based; details: bioactive lipid dose = 20 uM, 2880 min
RPMI-7666 cells [4] = assay: % survival, trypan blue assay, with serum, RPMI-7666; assay type: cell-based; details: bioactive lipid dose = 20 uM
U-937 cells [5] = assay: % survival, trypan blue assay, with serum, U-937; assay type: cell-based; details: bioactive lipid dose = 20 uM
P-388 cells [6] = assay: % survival, trypan blue assay, with serum, P-388; assay type: cell-based; details: bioactive lipid dose = 20 uM
CAKI 1 cells = assay: sulforhodamine B cytotoxicity assay, 72 hour drug exposure, CAKI 1; assay type: cell-based
SKMEL 28 cells = assay: sulforhodamine B cytotoxicity assay, 72 hour drug exposure, SKMEL 28; assay type: cell-based
P388 cells = assay: sulforhodamine B cytotoxicity assay, 72 hour drug exposure, P388; assay type: cell-based; details: Mus musculus
Description: as §1

P388/ADR cells = assay: sulforhodamine B cytotoxicity assay, 72 hour drug exposure, P388/ADR; assay type: cell-based; details: Mus musculus
Description: as §1

mice = assay: in vivo toxicity after i.v. injection in mice
[7] = Homo sapiens, NCI/ADR-RES, 72 h

CCCCCCCCCCCCC/C=C/[C@@H](O)[C@H](CO[Si](C)(C)C(C)(C)C)NC(=O)CCCCC [1-TBDMS C6-Ceramide, 1-TBDMS C6-Cer]
GI50 (A549 cells; Homo sapiens): > 200 µM
GI50 (RPMI 7666 cells): > 200 µM
GI50 (U937 cells): > 200 µM
GI50 (LEWIS LUNG cells; Lewis lung carcinoma): > 200 µM
GI50 (C3H10T1/2 cells): > 161 µM

CCCCCCCCCCCCC/C=C/[C@@H](OC(=O)CCC)[C@H](CO[Si](C)(C)C(C)(C)C)NC(=O)CCCCC [1-TBDMS-3-Butyrate C6-Cer, 1-TBDMS,3-butyrate, C6-Cer]
GI50 (A549 cells; Homo sapiens): > 200 µM
GI50 (RPMI 7666 cells): > 200 µM
GI50 (U937 cells): > 200 µM
GI50 (LEWIS LUNG cells; Lewis lung carcinoma): > 200 µM
GI50 (C3H10T1/2 cells): > 200 µM

CCCCCCCCCCCCC/C=C/[C@@H](O[Si](C)(C)C(C)(C)C)[C@H](CO)NC(=O)CCCCC [3-TBDMS C6-Ceramide, 3-TBDMS C6-Cer]
GI50 (A549 cells; Homo sapiens): > 200 µM
GI50 (RPMI 7666 cells): > 200 µM
GI50 (U937 cells): > 200 µM
GI50 (LEWIS LUNG cells; Lewis lung carcinoma): > 200 µM
GI50 (C3H10T1/2 cells): > 200 µM

CCCCCCCCCCCCCC(O)C(O)[C@@H](O)[C@H](CO)NC(=O)CCCCC (stereo partly shown) [4,5-Diol C6-Ceramide, 4,5-diol C6-Cer]
GI50 (A549 cells; Homo sapiens, A549, 72 h): 25.1 ± 0.3 µM
GI50 (MCF7 cells; Homo sapiens, MCF7, 72 h): 20.7 ± 0.1 µM
GI50 (MCF7/ADR cells; [7]): 28.3 ± 1.1 µM
GI50 (LEWIS LUNG cells; Mus musculus, Lewis lung carcinoma, 72 h): 15.2 µM
GI50 (OVCAR 3 cells; Homo sapiens, OVCAR-3, 72 h): 38.2 ± 2.3 µM
GI50 (HT 29 cells; Homo sapiens, HT-29, 72 h): 14.6 ± 0.4 µM

CCCCCCCCCCCCC/C=C/[C@@H](O)[C@H](CO)NC(=O)CCCCC [C6-Ceramide, C6-ceramide, reference compound]
% Survival (by trypan blue exclusion assay) (RPMI-7666 cells [1]): 79%
% Survival (by trypan blue exclusion assay) (U-937 cells [2]): 82.6%
% Survival (by trypan blue exclusion assay) (P-388 cells [3]): 55.4%
% Survival (by trypan blue assay) (RPMI-7666 cells [4]): 89.2%
% Survival (by trypan blue assay) (U-937 cells [5]): 97%
% Survival (by trypan blue assay) (P-388 cells [6]): 84.5%
GI50 (A549 cells; Homo sapiens, A549, 72 h): 12 ± 4.8 µM
GI50 (A549 cells; listed as Cer-C6): 8.08 ± 0.06 µM
GI50 (MCF7 cells; Homo sapiens, MCF7, 72 h): 24.2 ± 8.5 µM
GI50 (MCF7 cells; listed as Cer-C6): 12.7 ± 0.14 µM
GI50 (MCF7/ADR cells): 36 ± 0.88 µM
GI50 (MCF7/ADR cells; [7]): 36 ± 0.88 µM
GI50 (MCF7/ADR cells; listed as Cer-C6): 26.1 ± 0.85 µM
GI50 (RPMI 7666 cells): 8.5 ± 3.5 µM
GI50 (U937 cells): 7 ± 1.7 µM
GI50 (LEWIS LUNG cells; Lewis lung carcinoma, 72 h): 9.6 ± 4.4 µM
GI50 (LEWIS LUNG cells; listed as Cer-C6): 5.81 µM
GI50 (C3H10T1/2 cells): 14 ± 2.5 µM
GI50 (CAKI 1 cells; Homo sapiens, CAKI-1, 72 h): 6.04 ± 0.23 µM
GI50 (CAKI 1 cells; listed as Cer-C6): 5.88 ± 0.1 µM
GI50 (OVCAR 3 cells; Homo sapiens, OVCAR-3, 72 h): 15.2 ± 1.77 µM
GI50 (HT 29 cells; Homo sapiens, HT-29, 72 h): 4 ± 0.2 µM
GI50 (HT 29 cells; listed as Cer-C6): 4.67 ± 0.19 µM
GI50 (SKMEL 28 cells; Homo sapiens, SK-MEL-28, 72 h): 13.3 ± 2.51 µM
GI50 (SKMEL 28 cells; listed as Cer-C6): 11.55 ± 0.07 µM
GI50 (P388 cells): 6.24 ± 0.3 µM
GI50 (P388/ADR cells): 12.7 ± 1.7 µM

CCCCCCCCCCCCC/C=C/[C@@H](O)[C@H](CO)NCCCC [N-C4 Sphingosine, N-C4 sphingosine]
GI50 (A549 cells; Homo sapiens, A549, 72 h): 4.9 ± 0.1 µM
GI50 (MCF7 cells; Homo sapiens, MCF7, 72 h): 4.88 ± 0.03 µM
GI50 (MCF7/ADR cells; [7]): 9.6 ± 0.47 µM
GI50 (LEWIS LUNG cells; Lewis lung carcinoma, 72 h): 5.08 ± 0.13 µM
GI50 (CAKI 1 cells; Homo sapiens, CAKI-1, 72 h): 6.88 ± 0.52 µM
GI50 (OVCAR 3 cells; Homo sapiens, OVCAR-3, 72 h): 14.1 ± 0.35 µM
GI50 (HT 29 cells; Homo sapiens, HT-29, 72 h): 6.49 ± 0.11 µM
GI50 (SKMEL 28 cells; Homo sapiens, SK-MEL-28, 72 h): 6.13 ± 1.03 µM

CCCCCCCCCCCCC/C=C/[C@@H](O)[C@H](CO)NCCCCCCCC [N-C8 Sphingosine HCl Salt]
GI50 (A549 cells; HCl Salt): 4.97 ± 0.19 µM
GI50 (MCF7 cells; HCl Salt): 4.9 ± 0.02 µM
GI50 (MCF7/ADR cells; HCl Salt): 4.82 ± 0.18 µM
GI50 (LEWIS LUNG cells; HCl Salt): 4.82 ± 0.18 µM
GI50 (CAKI 1 cells; HCl Salt): 4.47 ± 0.01 µM
GI50 (OVCAR 3 cells; HCl Salt): 5.23 ± 0.01 µM
GI50 (HT 29 cells; HCl Salt): 5.78 µM
GI50 (SKMEL 28 cells; HCl Salt): 4.95 ± 0.02 µM

CCCCCCCCCCCCC/C=C/[C@@H](O)[C@H](CO)NCCCCCC [N-Hexyl Sphingosine, n-hexyl sphingosine]
GI50 (A549 cells; Homo sapiens, A549, 72 h): 4.9 ± 0.1 µM
GI50 (MCF7 cells; Homo sapiens, MCF7, 72 h): 4.8 ± 0.1 µM
GI50 (MCF7 cells; listed as N-C6 Sphingosine): 4.74 ± 0.09 µM
GI50 (MCF7/ADR cells; [7]): 5.57 ± 1.17 µM
GI50 (MCF7/ADR cells; listed as N-C6 Sphingosine): 4.69 ± 0.1 µM
GI50 (LEWIS LUNG cells; Lewis lung carcinoma, 72 h): 4.9 ± 0.1 µM
GI50 (LEWIS LUNG cells; listed as N-C6 Sphingosine): 4.61 ± 0.04 µM
GI50 (CAKI 1 cells; Homo sapiens, CAKI-1, 72 h): 6.84 ± 3.62 µM
GI50 (CAKI 1 cells; listed as N-C6 Sphingosine): 4.28 ± 0.04 µM
GI50 (OVCAR 3 cells; Homo sapiens, OVCAR-3, 72 h): 4.99 ± 0.05 µM
GI50 (HT 29 cells; Homo sapiens, HT-29, 72 h): 5.2 ± 0.1 µM
GI50 (HT 29 cells; listed as N-C6 Sphingosine): 5.03 ± 0.06 µM
GI50 (SKMEL 28 cells; Homo sapiens, SK-MEL-28, 72 h): 4.94 ± 0.66 µM
GI50 (P388 cells): 2.59 ± 0.3 µM
GI50 (P388/ADR cells): 2.61 ± 1.7 µM
Number of Animals Dead (mice; 12.5 mg/kg): 0/2
Number of Animals Dead (mice; 25 mg/kg): 0/2
Number of Animals Dead (mice; 50 mg/kg): 0/2
Number of Animals Dead (mice; 100 mg/kg): 2/2

CCCCCCCCCCCCC/C=C/[C@@H](O)[C@@H](N)CO [Sphingosine, reference compound]
GI50 (A549 cells; Homo sapiens): 20.2 ± 0.8 µM
GI50 (MCF7 cells; Homo sapiens): 20.4 ± 0.4 µM
GI50 (MCF7/ADR cells; Homo sapiens, NCI/ADR-RES): 19.8 µM
GI50 (LEWIS LUNG cells; Lewis lung carcinoma): 12.2 ± 0.1 µM
GI50 (CAKI 1 cells; Homo sapiens): 39.7 ± 0.8 µM
GI50 (OVCAR 3 cells; Homo sapiens): 44.6 ± 0.9 µM
GI50 (HT 29 cells; Homo sapiens): 19.3 ± 0.1 µM
GI50 (SKMEL 28 cells; Homo sapiens, SK-MEL-28): 15.6 ± 1 µM
